Holding throughout (assay type): cell-based
Assay [1] concerns Klebsiella pneumoniae ATCC 10031. Description: MIC, Klebsiella pneumoniae ATCC 10031 (KP). Conditions: ATCC10031; Klebsiella pneumoniae ATCC 10031; read-out: MIC KP.
Assay [2] concerns Staphylococcus aureus FDA 209P. Description: MIC, Staphylococcus aureus FDA 209P (SA(2)). Particulars: Staphylococcus aureus, FDA209P, Staphylococcus aureus FDA 209P; read-out: MIC SA (2). From the text: (§1) The minimum inhibitory concentrations (MIC: mcg/ml) of the erythromycin derivatives of the present invention and the control erythromycin derivative (*) as the known growth promoting agent on typical test bacteria are shown in the following Tables 1 to 5.
SA(2): Staphylococcus aureus FDA 209P

In another assay the test system is Bacillus subtilis. The assay is described as follows: MIC, Bacillus subtilis (BS). Conditions: read-out: MIC BS.
In a further assay the test system is Bacillus cereus IFO 3001. Description: MIC, Bacillus cereus IFO 3001 (BC). Conditions: Bacillus cereus, IFO3001, Bacillus cereus IFO 3001; read-out: MIC BC.
For assay [3], the system named is Staphylococcus aureus ATCC 6538P. The assay is described as follows: MIC, Staphylococcus aureus ATCC 6538P (SA(1)). Conditions: Staphylococcus aureus, ATCC6538P, Staphylococcus aureus ATCC 6538P; read-out: MIC SA (1).
From the text: as §1
SA(1): Staphylococcus aureus ATCC 6538P

A further assay concerns Escherichia coli NIHJ. Description: MIC, Escherichia coli NIHJ (EC).

These results are taken from patent US4948782A, “A method of promoting the growth of domestic animals with erythromycin derivative containing composition” (Kitasato Kenkyusho, priority 1987, dated 1990).

A word on the MIC: it is the lowest concentration that inhibits growth of the organism.

`CCC1OC(=O)C(C)C(OC2CC(C)(OC)C(O)C(C)O2)C(C)C(OC2OC(C)CC(N3CCCC3)C2O)C2(C)CC(C)=C(O2)C(C)C(O)C1(C)O` (stereo not drawn) [Compound 13]: the minimum inhibitory concentration (MIC) (in assay [1]; in assay [2]; in the assay on Bacillus subtilis; in the assay on Bacillus cereus IFO 3001; in assay [3]; in the assay with Escherichia coli NIHJ) was over 100 µg/mL each time.

For the compound `CCC1OC(=O)C(C)C(OC2CC(C)(OC)C(O)C(C)O2)C(C)C(OC2OC(C)CC([N+]3(C)CCCC3)C2O)C2(C)CC(C)=C(O2)C(C)C(O)C1(C)O` (stereo not drawn) [Compound 14], the MIC (in assay [1]; in assay [2]; in the assay with Bacillus subtilis; with Bacillus cereus IFO 3001; in assay [3]; in the assay on Escherichia coli NIHJ) was over 100 µg/mL throughout.

Turning to `CCC1OC(=O)C(C)C(OC2CC(C)(OC)C(O)C(C)O2)C(C)C(OC2OC(C)CC([N+](C)(C)CCO)C2O)C2(C)CC(C)=C(O2)C(C)C(O)C1(C)O` (stereo not drawn) [Compound 15], the MIC (in assay [1]; in assay [2]; in the assay with Bacillus subtilis; with Bacillus cereus IFO 3001; in assay [3]; against Escherichia coli NIHJ) was over 100 µg/mL throughout.

As for `C=CC[N+](C)(C)C1CC(C)OC(OC2C(C)C(OC3CC(C)(OC)C(O)C(C)O3)C(C)C(=O)OC(CC)C(C)(O)C(O)C(C)C3=C(C)CC2(C)O3)C1O` (stereo not drawn) [Compound 16], the MIC was over 100 µg/mL in assay [1]; over 100 µg/mL in assay [2]; over 100 µg/mL with Bacillus subtilis; over 100 µg/mL in the assay on Bacillus cereus IFO 3001; 100 µg/mL in assay [3]; over 100 µg/mL in the assay with Escherichia coli NIHJ.

Consider `CCC1OC(=O)C(C)C(OC2CC(C)(OC)C(O)C(C)O2)C(C)C(OC2OC(C)CC([N+](C)(C)Cc3ccccc3)C2O)C2(C)CC(C)=C(O2)C(C)C(O)C1(C)O` (stereo not drawn) [Compound 17], for which the MIC was over 100 µg/mL in assay [1]; 100 µg/mL in assay [2]; 50 µg/mL in the assay on Bacillus subtilis; 100 µg/mL with Bacillus cereus IFO 3001; 100 µg/mL in assay [3]; over 100 µg/mL against Escherichia coli NIHJ.

For the compound `CCC1OC(=O)C(C)C(OC2CC(C)(OC)C(O)C(C)O2)C(C)C(OC2OC(C)CC([N+](C)(C)CC)C2O)C2(C)CC(C)=C(O2)C(C)C(OS(C)(=O)=O)C1(C)O` (stereo not drawn) [Compound 18], the minimum inhibitory concentration (MIC) (in assay [1]; in assay [2]; with Bacillus subtilis; in the assay on Bacillus cereus IFO 3001; in assay [3]; with Escherichia coli NIHJ) was over 100 µg/mL each time.

On to `CCC1OC(=O)C(C)C(OC2CC(C)(OC)C(O)C(C)O2)C(C)C(OC2OC(C)CC(N(CC)CC)C2O)C2(C)CC(C)=C(O2)C(C)C(O)C1(C)O` (stereo not drawn) [Compound 20], for which the minimal inhibitory concentration (MIC) (in assay [1]; in assay [2]; in the assay with Bacillus subtilis; in the assay with Bacillus cereus IFO 3001; in assay [3]; in the assay with Escherichia coli NIHJ) was over 100 µg/mL throughout.

As to `CCNC1CC(C)OC(OC2C(C)C(OC3CC(C)(OC)C(O)C(C)O3)C(C)C(=O)OC(CC)C(C)(O)C(O)C(C)C3=C(C)CC2(C)O3)C1O` (stereo not drawn) [Compound 21], the MIC (in assay [1]; in assay [2]; in the assay with Bacillus subtilis; in the assay with Bacillus cereus IFO 3001; in assay [3]; against Escherichia coli NIHJ) was over 100 µg/mL throughout.

Regarding `CCC1OC(=O)C(C)C(OC2CC(C)(OC)C(O)C(C)O2)C(C)C(OC2OC(C)CC(N3CCCCC3)C2O)C2(C)CC(C)=C(O2)C(C)C(O)C1(C)O` (stereo not drawn) [Compound 22], the MIC (in assay [1]; in assay [2]; in the assay with Bacillus subtilis; in the assay with Bacillus cereus IFO 3001; in assay [3]; against Escherichia coli NIHJ) was over 100 µg/mL throughout.

Take `CCC1OC(=O)C(C)C(OC2CC(C)(OC)C(O)C(C)O2)C(C)C(OC2OC(C)CC([N+](CC)(CC)CC)C2O)C2(C)CC(C)=C(O2)C(C)C(O)C1(C)O` (stereo not drawn) [Compound 23]: the MIC (in assay [1]; in assay [2]; in the assay on Bacillus subtilis; in the assay with Bacillus cereus IFO 3001; in assay [3]; against Escherichia coli NIHJ) was over 100 µg/mL each time.

Consider `CCC1OC(=O)C(C)C(OC2CC(C)(OC)C(O)C(C)O2)C(C)C(OC2OC(C)CC([N+]3(CC)CCCC3)C2O)C2(C)CC(C)=C(O2)C(C)C(O)C1(C)O` (stereo not drawn) [Compound 24], for which the MIC (in assay [1]; in assay [2]; in the assay on Bacillus subtilis; in the assay with Bacillus cereus IFO 3001; in assay [3]; against Escherichia coli NIHJ) was over 100 µg/mL in each case.

In the case of `CCC1OC(=O)C(C)C(OC2CC(C)(OC)C(O)C(C)O2)C(C)C(OC2OC(C)CC([N+]3(C)CCCCC3)C2O)C2(C)CC(C)=C(O2)C(C)C(O)C1(C)O` (stereo not drawn) [Compound 25], the MIC (in assay [1]; in assay [2]; in the assay with Bacillus subtilis; in the assay on Bacillus cereus IFO 3001; in assay [3]; against Escherichia coli NIHJ) was over 100 µg/mL in each case.

On to `CCC1OC(=O)C(C)C(OC2CC(C)(OC)C(O)C(C)O2)C(C)C(OC2OC(C)CC([N+]3(CC)CCCCC3)C2O)C2(C)CC(C)=C(O2)C(C)C(O)C1(C)O` (stereo not drawn) [Compound 26], for which the MIC (in assay [1]; in assay [2]; in the assay on Bacillus subtilis; with Bacillus cereus IFO 3001; in assay [3]; against Escherichia coli NIHJ) was over 100 µg/mL throughout.

Consider `C#CC[N+](C)(C)C1CC(C)OC(OC2C(C)C(OC3CC(C)(OC)C(O)C(C)O3)C(C)C(=O)OC(CC)C(C)(O)C(O)C(C)C3=C(C)CC2(C)O3)C1O` (stereo not drawn) [Compound 27], for which the MIC was over 100 µg/mL in assay [1]; 100 µg/mL in assay [2]; 100 µg/mL in the assay on Bacillus subtilis; 100 µg/mL in the assay on Bacillus cereus IFO 3001; 100 µg/mL in assay [3]; over 100 µg/mL against Escherichia coli NIHJ.

For the compound `C#CC[N+](C)(C)C1CC(C)OC(OC2C(C)C(OC3CC(C)(OC)C(O)C(C)O3)C(C)C(=O)OC(CC)C(C)(OC(C)=O)C(OC(C)=O)C(C)C3=C(C)CC2(C)O3)C1O` (stereo not drawn) [Compound 28], the MIC was over 100 µg/mL in assay [1]; 50 µg/mL in assay [2]; 50 µg/mL in the assay on Bacillus subtilis; 50 µg/mL with Bacillus cereus IFO 3001; 50 µg/mL in assay [3]; over 100 µg/mL against Escherichia coli NIHJ.

Turning to `CCC1OC(=O)C(C)C(OC2CC(C)(OC)C(O)C(C)O2)C(C)C(OC2OC(C)CC([N+](C)(C)CC)C2O)C2(C)CC(C)=C(O2)C(C)C(OC(C)=O)C1(C)OC(C)=O` (stereo not drawn) [Compound 29], the MIC is over 100 µg/mL in assay [1]; 50 µg/mL in assay [2]; 100 µg/mL in the assay with Bacillus subtilis; 100 µg/mL in the assay on Bacillus cereus IFO 3001; 100 µg/mL in assay [3]; over 100 µg/mL against Escherichia coli NIHJ.

In the case of `CCC1OC(=O)C(C)C(OC2CC(C)(OC)C(O)C(C)O2)C(C)C(OC2OC(C)CC([N+](C)(C)CC(=O)OC)C2O)C2(C)CC(C)=C(O2)C(C)C(O)C1(C)O` (stereo not drawn) [Compound 30], the MIC (in assay [1]; in assay [2]; with Bacillus subtilis; in the assay on Bacillus cereus IFO 3001; in assay [3]; with Escherichia coli NIHJ) was over 100 µg/mL throughout.

On to `CCC1OC(=O)C(C)C(OC2CC(C)(OC)C(O)C(C)O2)C(C)C(OC2OC(C)CC([N+](C)(C)CC(=O)O)C2O)C2(C)CC(C)=C(O2)C(C)C(O)C1(C)O` (stereo not drawn) [Compound 31], for which the MIC (in assay [1]; in assay [2]; with Bacillus subtilis; in the assay with Bacillus cereus IFO 3001; in assay [3]; in the assay on Escherichia coli NIHJ) was over 100 µg/mL in each case.

For `CCC1OC(=O)C(C)C(OC2CC(C)(OC)C(O)C(C)O2)C(C)C(OC2OC(C)CC([N+](C)(C)CCF)C2O)C2(C)CC(C)=C(O2)C(C)C(O)C1(C)O` (stereo not drawn) [Compound 32], the MIC (in assay [1]; in assay [2]; in the assay with Bacillus subtilis; in the assay with Bacillus cereus IFO 3001; in assay [3]; in the assay on Escherichia coli NIHJ) was over 100 µg/mL throughout.

With `CCC1OC(=O)C(C)C(OC2CC(C)(OC)C(O)C(C)O2)C(C)C(OC2OC(C)CC([N+](C)(C)CC#N)C2O)C2(C)CC(C)=C(O2)C(C)C(O)C1(C)O` (stereo not drawn) [Compound 33], the minimal inhibitory concentration (MIC) (in assay [1]; in assay [2]; in the assay with Bacillus subtilis; in the assay on Bacillus cereus IFO 3001; in assay [3]; in the assay on Escherichia coli NIHJ) was over 100 µg/mL throughout.

For `C=CCN(C)C1CC(C)OC(OC2C(C)C(OC3CC(C)(OC)C(O)C(C)O3)C(C)C(=O)OC(CC)C(C)(O)C(O)C(C)C3=C(C)CC2(C)O3)C1O` (stereo not drawn) [Compound 34], the MIC (in assay [1]; in assay [2]; in the assay on Bacillus subtilis; in the assay on Bacillus cereus IFO 3001; in assay [3]; with Escherichia coli NIHJ) was over 100 µg/mL in each case.

Take `C#CCN(C)C1CC(C)OC(OC2C(C)C(OC3CC(C)(OC)C(O)C(C)O3)C(C)C(=O)OC(CC)C(C)(O)C(O)C(C)C3=C(C)CC2(C)O3)C1O` (stereo not drawn) [Compound 35]: the MIC (in assay [1]; in assay [2]; in the assay on Bacillus subtilis; with Bacillus cereus IFO 3001; in assay [3]; with Escherichia coli NIHJ) was over 100 µg/mL throughout.

With `CCCN(C)C1CC(C)OC(OC2C(C)C(OC3CC(C)(OC)C(O)C(C)O3)C(C)C(=O)OC(CC)C(C)(O)C(O)C(C)C3=C(C)CC2(C)O3)C1O` (stereo not drawn) [Compound 36], the MIC (in assay [1]; in assay [2]; in the assay with Bacillus subtilis; in the assay with Bacillus cereus IFO 3001; in assay [3]; in the assay on Escherichia coli NIHJ) was over 100 µg/mL throughout.
